Data: paper PMC10867212, “Comparative pharmacokinetics of polymyxin B in critically ill elderly patients with extensively drug-resistant gram-negative bacteria infections” (Frontiers in Pharmacology, 2024)
Where two headings read alike, the source gives them in different places. Where a SMILES comes first, the peptide text is derived from it. Bridges are numbered along the chain shown (N, C = ends). [ ]: non-standard residue; d: D form. The star is where a group is joined. X1 = CC[C@H](C)CCCCC(=O)*; Dab = NCC[C@H](N)C(=O)O

Legend:
[1] = ref Zavascki et al., 2008; Yun et al., 2015; cited from earlier work
Source text: PMB has been reported to accumulate in large quantities in the kidney, much more than in other organs, such as the heart, lungs, and brain. […] Considering that PMB is poorly recovered in urine (less than 1%) ([Zavascki et al., 2008]; [Yun et al., 2015]), it may be filtered from the glomerulus and reabsorbed in the proximal tubule.

[2] = Steady-state plasma pharmacokinetics of intravenous polymyxin B in critically ill patients (non-compartmental analysis); format: in vivo, human; conditions: for Normalized AUCss, 0–24 h: AUC adjusted to a daily dose of 1 mg/kg of TBW; for Cmin / Css, avg (average steady-state plasma concentration) / Cmax / AUC(0-t): HPLC-MS/MS; for Tmax: iv infusion of at least 1 h; for half-life: read-out: Half-time time (converted)
Source text: All adult patients admitted to the participating intensive care unit (ICU) in a teaching hospital between December 2021 and July 2023 were consecutively screened for entry into this prospective observational study. The ICU served a mixed population of medical, surgical, trauma, and neurologic patients. All critically ill patients (≥18 years) were eligible if they received intravenous PMB for more than 3 days (sulfate; PMB injection, Shanghai First Biochemical Pharmaceutical Co., Ltd., China) for the treatment of documented XDR-GNB infections. Exclusion criteria were 1) patients with anuria or who received blood purification therapy or extracorporeal membrane oxygenation during PMB treatment; 2) pregnant women. Informed written consent was obtained from each patient or a legal representative of the family. This study protocol was approved by the human ethics committees in Shandong Provincial Hospital Affiliated to Shandong First Medical University (protocol SWYX: No. 2021-356) and was carried out in accordance with the Declaration of Helsinki (2000) of the World Medical Association.
Patients were enrolled on the first day of intravenous PMB administration. This study continued for 28 days or until discharge from the hospital or death. According to the patient’s age, the enrolled patients were divided into two groups: the elderly group (≥65 years) and the young group (<65 years).
PMB was administrated intravenously with a loading dose of 2.0–2.5 mg/kg and maintenance doses of 1.25–1.5 mg/kg every 12 h, with at least 1 h infusion time. Calculation of both the loading dose and maintenance dose was based on the total body weight (TBW) of the patient. No dose adjustment was performed in patients with renal insufficiency and renal replacement therapy. Concurrent prescription of other potential nephrotoxic drugs, such as vancomycin, aminoglycoside, etc., was avoided as much as possible at any time during PMB treatment in our study. The initiation of PMB treatment as well as the concomitant antibiotics and their duration were at the discretion of the ICU physicians.
For steady-state PK assessment, blood samples were obtained after at least six doses of PMB. In each patient, six to eight blood samples (3 mL) were collected immediately 10 min before the infusion and 30 min and 1, 2, 3, 6, 8, and 12 h after the beginning of infusion in ethylenediaminetetraacetic acid anticoagulant tubes. Blood samples were immediately centrifuged at 3500 g for 10 min, and the plasma samples were collected and stored at −80°C until analysis. The PMB plasma concentrations were quantified by measuring both polymyxin B1 and B2 using validated high-performance liquid chromatography-tandem mass spectrometry.
The primary outcome was steady-state PMB exposure as reflected by AUCss, 0–24 h. Non-compartmental PK analysis was conducted using Phoenix WinNonlin software 8.3 (Certara, United States). The clinical variables were summarized as means with standard deviation for approximately normally distributed continuous variables or medians with interquartile range for non-normally distributed continuous variables and as frequencies and percentages for categorical variables. The normality of all data sets was determined using the Kolmogorov-Smirnov test. Categorical variables were analyzed by the chi-square or Fisher exact test, while continuous variables were analyzed by the two-tailed non-paired Student’s t-test or Mann-Whitney U test. […] All the analyses were performed with the use of the SPSS for Windows statistical program (version 22.0; IBM Corp., Armonk, NY).

[3] = all patients (n = 23), iv 1.25–1.5 mg/kg q12h, steady state, mean ± SD, SD
[4] = elderly group ≥65 years (n = 17), iv 1.25–1.5 mg/kg q12h, steady state, mean ± SD, SD
[5] = young group <65 years (n = 6), iv 1.25–1.5 mg/kg q12h, steady state, mean ± SD, SD

CC[C@H](C)CCCCC(=O)N[C@@H](CCN)C(=O)N[C@H](C(=O)N[C@@H](CCN)C(=O)N[C@H]1CCNC(=O)[C@H]([C@@H](C)O)NC(=O)[C@H](CCN)NC(=O)[C@H](CCN)NC(=O)[C@H](CC(C)C)NC(=O)[C@@H](Cc2ccccc2)NC(=O)[C@H](CCN)NC1=O)[C@@H](C)O [polymyxin B] (X1-[Dab]T[Dab][Dab][Dab][dF]L[Dab][Dab]T; lactam 4-C)
Recovery in urine [1]: less than 1%
Normalized AUCss, 0–24 h ([2]; all patients (n = 23), steady state, mean ± SD, SD): 52.31 ± 28.65 mg·h/L
Cmin [2, 3]: 2990 ± 1990 ng/mL
Css, avg (average steady-state plasma concentration) [2, 3]: 4200 ± 2230 ng/mL
Normalized AUCss, 0–24 h ([2]; elderly group ≥65 years (n = 17), steady state, mean ± SD, SD): 55.23 ± 28.51 mg·h/L
Cmax [2, 4]: 9230 ± 2840 ng/mL
Cmin [2, 4]: 3110 ± 1790 ng/mL
Css, avg (average steady-state plasma concentration) [2, 4]: 4320 ± 2110 ng/mL
Clearance per TBW ([2]; elderly group ≥65 years (n = 17), per total body weight, iv, steady state, non-compartmental, mean ± SD, SD): 0.6 ± 0.4 mL/min/kg
AUC(0-t) ([2]; human, elderly group ≥65 years (n = 17), iv 1.25–1.5 mg/kg q12h after loading dose, steady state (≥6 doses), non-compartmental, mean ± SD, SD, read-out: AUCss, 0–12 h): 51800 ± 25300 ng·h/mL
Cmax ([2]; human, iv, all patients (n = 23), iv 1.25–1.5 mg/kg q12h, steady state, mean ± SD, SD, read-out: Cmax): 9410 ± 3120 ng/mL
AUC(0-t) ([2]; human, iv, all patients (n = 23), iv 1.25–1.5 mg/kg q12h, steady state, non-compartmental, mean ± SD, SD, read-out: AUCss, 0–24 h): 71900 ± 41800 ng·h/mL
AUC(0-t) ([2]; human, iv, all patients (n = 23), iv 1.25–1.5 mg/kg q12h after loading dose, steady state (≥6 doses), non-compartmental, mean ± SD, SD, read-out: AUCss, 0–12 h): 50300 ± 27000 ng·h/mL
Tmax ([2]; human, iv, all patients (n = 23), steady state, mean ± SD, SD): 54.6 ± 29.4 min
clearance ([2]; human, iv, all patients (n = 23), iv, steady state, non-compartmental, mean ± SD, SD, read-out: Clearance (converted)): 41.5 mL/min
Vd ([2]; human, iv, all patients (n = 23), iv, steady state, non-compartmental, mean ± SD, SD, read-out: Volume of distribution): 24.7 ± 11.7 L
clearance ([2]; human, iv, all patients (n = 23), per total body weight, iv, steady state, non-compartmental, mean ± SD, SD, read-out: Clearance per TBW (converted)): 0.6 mL/min/kg
Vd ([2]; human, iv, all patients (n = 23), per total body weight, iv, steady state, non-compartmental, mean ± SD, SD, read-out: Volume of distribution per TBW): 0.37 ± 0.17 L/kg
AUC(0-t) ([2]; human, iv, elderly group ≥65 years (n = 17), iv 1.25–1.5 mg/kg q12h, steady state, non-compartmental, mean ± SD, SD, read-out: AUCss, 0–24 h): 76200 ± 41800 ng·h/mL
Tmax ([2]; human, iv, elderly group ≥65 years (n = 17), steady state, mean ± SD, SD): 56.5 ± 33.6 min
clearance ([2]; human, iv, elderly group ≥65 years (n = 17), iv, steady state, non-compartmental, mean ± SD, SD, read-out: Clearance (converted)): 39.5 mL/min
half-life ([2]; human, iv, elderly group ≥65 years (n = 17), iv, steady state, non-compartmental, mean ± SD, SD): 673 ± 323 min
Vd ([2]; human, iv, elderly group ≥65 years (n = 17), iv, steady state, non-compartmental, mean ± SD, SD, read-out: Volume of distribution): 25.5 ± 12.9 L
Vd ([2]; human, iv, elderly group ≥65 years (n = 17), per total body weight, iv, steady state, non-compartmental, mean ± SD, SD, read-out: Volume of distribution per TBW): 0.4 ± 0.19 L/kg
Cmax ([2]; human, iv, young group <65 years (n = 6), iv 1.25–1.5 mg/kg q12h, steady state, mean ± SD, SD, read-out: Cmax): 9890 ± 4070 ng/mL
AUC(0-t) ([2]; human, iv, young group <65 years (n = 6), iv 1.25–1.5 mg/kg q12h, steady state, non-compartmental, mean ± SD, SD, read-out: AUCss, 0–24 h): 59500 ± 43100 ng·h/mL
Tmax ([2]; human, iv, young group <65 years (n = 6), steady state, mean ± SD, SD): 49.8 ± 15.6 min
clearance ([2]; human, iv, young group <65 years (n = 6), iv, steady state, non-compartmental, mean ± SD, SD, read-out: Clearance (converted)): 47.5 mL/min
half-life ([2]; human, iv, young group <65 years (n = 6), iv, steady state, non-compartmental, mean ± SD, SD): 394 ± 69.6 min
Vd ([2]; human, iv, young group <65 years (n = 6), iv, steady state, non-compartmental, mean ± SD, SD, read-out: Volume of distribution): 22.3 ± 7.6 L
clearance ([2]; human, iv, young group <65 years (n = 6), per total body weight, iv, steady state, non-compartmental, mean ± SD, SD, read-out: Clearance per TBW (converted)): 0.617 mL/min/kg
Vd ([2]; human, iv, young group <65 years (n = 6), per total body weight, iv, steady state, non-compartmental, mean ± SD, SD, read-out: Volume of distribution per TBW): 0.29 ± 0.09 L/kg
AUCss, 0–24 h (range) ([2]; range over the critically ill patients (n = 23), steady state): 11300 to 151280 ng·h/mL
Normalized AUCss, 0–24 h ([2]; young group <65 years (n = 6), steady state, mean ± SD, SD): 44.03 ± 30.00 mg·h/L
Cmin [2, 5]: 2650 ± 2640 ng/mL
Css, avg (average steady-state plasma concentration) [2, 5]: 3880 ± 2750 ng/mL
